What is called EC50 is the concentration needed to bring the measured effect to its halfway point.

Like-named read-outs stand apart in the source and are kept apart here.

Holding throughout (assay): Efficacy screening assay
Type in all cases: cell-based

One assay has as its system 22RV1. Conditions: 22RV1, prostate. As to the method: (§1) The experiment was performed by Oncolead GmbH & Co. KG (Karlsfeld , Germany), based on a standardized screening procedure . Cell lines were purchased directly from the ATCC, NCI and DSMZ cell line c ollections. Cells used for the study had undergone less than 20 passages. To ensure the absence of potential contamination and wrong assignment, all cell lines were tested using a whole genome assay (Agilent, USA). All cell lines were grown as recommended by the suppliers and with addition of 100 U/mL penicillin G and 100 µg/mL; streptomycin. Cell growth and treatments were performed in Nunclon D 96 -well plates (NUNC, Germany). The optimal seeding density for each cell line was determined to ensure exponential growth for the duration of the experiment. All cells growing without anti-cancer agents were sub-conﬂuent by the end of the treatment, as determined by visual inspection.
(§2) After an initial 24 h pre-growth period, the compounds were added. The vehicle concentration […]
(§3) was 0.1% DMSO. After incubation at 37°C for 72 h, the culture medium was aspirated, and the cells were precipitated by the addition of 10% trichloroacetic acid (Sigma-Aldrich, Missouri, US). After overnight incubation at 4°C, the plates were washed three times with deionized water. The precipitates were then stained with SRB (0.4% wt/v sulforhodamine B solution in 1% acetic acid, Sigma-Aldrich, Missouri, US). Afterwards, the plates were washed six times with 1% acetic acid to remove unbound stain. After drying the plates at room temperature, the bound SRB was solubilized with 10 mM Tris base and the optical density was measured at 520 nm using a Victor2 plate reader (Perkin Elmer, Germany). Blank OD values were subtracted from mean OD values for each concentration. The nonlinear curve ﬁtting and EC50 calculations were per formed using XLﬁt and algorithm “205” (ID Business […]
(§4) one-way ANOVA and multiple comparison (Dunnett) was performed for compound treatments compared to vehicle control. The adjusted p-values with 95% confidence interval were reported as significant. For comparison of EC50 values in Figure 1F, one-way ANOVA with multiple comparison testing (Tukey) was performed. Multiplicity adjusted p -values for the EC50 with sorafenib versus resminostat for each cell line and comparison between cell lines for sorafenib are presented (95% confidence interval for significance testing). For comparison of EC50 data in Figure 2B, one-way ANOVA with multiple comparison testing (Tukey) was performed. Multiplicity adjusted p-values with 95% confidence interval was applied. For the invasion assays in Figure 4, one-way ANOVA with multiple comparison testing (Tukey) was performed. Multiplicity adjusted p-values with 95% confidence interval was applied. The adjusted p-values comparing vehicle control without vs. with platelets and compound

In another assay the test system is C33A. The conditions noted are these: Homo sapiens, C-33-A, cervix, 72 h. On the procedure:
as §1, §2, §3, §4

A further assay deals with A2780. Conditions: A2780, ovary. As to the method:
as §1, §2, §3, §4

The next assay has as its system CAKI1. The conditions noted are these: CAKI1, kidney. On the procedure: as §1, §2, §3, §4
For another assay, the system named is A431. Conditions: A431, skin. As to the method: as §1, §2, §3, §4
The subject of another assay is 786O. The conditions noted are these: kidney. As to the method: as §1, §2, §3, §4

Turning to `CN(C)Cc1ccc(S(=O)(=O)n2ccc(/C=C/C(=O)NO)c2)cc1` [resminostat, Resminostat], the EC50 was 1450 nM with 22RV1 (72 h, read-out: EC50); 1450 nM in the assay with 22RV1 (Homo sapiens, 22Rv1, 72 h, log of EC50, negative, read-out: log(EC50) (converted)); 1450 nM in the assay on 22RV1 (Homo sapiens, 22Rv1, 72 h, read-out: EC50); 1550 nM in the assay on C33A (log of EC50, negative, read-out: log(EC50) (converted)); 1550 nM in the assay with C33A (read-out: EC50); 890 nM in the assay on A2780 (72 h, read-out: EC50). Besides, the EC50 was 891 nM with A2780 (Homo sapiens, A2780, 72 h, log of EC50, negative, read-out: log(EC50) (converted)); 890 nM with A2780 (Homo sapiens, A2780, 72 h, read-out: EC50); 3270 nM in the assay on CAKI1 (72 h, read-out: EC50); 3310 nM with CAKI1 (Homo sapiens, CAKI-1, 72 h, log of EC50, negative, read-out: log(EC50) (converted)); 3270 nM in the assay on CAKI1 (Homo sapiens, CAKI-1, 72 h, read-out: EC50); 1490 nM in the assay with A431 (72 h, read-out: EC50). Also, the EC50 with A431 (Homo sapiens, A-431, 72 h, log of EC50, negative, read-out: log(EC50) (converted)) was 1480 nM; in the assay with A431 (Homo sapiens, A-431, 72 h, read-out: EC50), 1490 nM; with 786O (Homo sapiens, 786-0, 72 h, log of EC50, negative, read-out: log(EC50) (converted)), 2570 nM; with 786O (Homo sapiens, 786-0, 72 h, read-out: EC50), 2540 nM; with 786O (72 h, read-out: EC50) it was 2540 nM.

(Values after publication PMC8100298, “Histone deacetylase inhibitor resminostat in combination with sorafenib counteracts platelet-mediated pro-tumoral effects in hepatocellular carcinoma” (Scientific Reports, 2021).)
